Experimental data taken from patent publication US20150190396A1, “TREATMENT OF TYPE I AND TYPE II DIABETES” (Melior Pharmaceuticals I, Inc., priority 2011, published 2015).
Entries after “also recorded” stand apart in the source; their conditions may differ.

How the values were obtained:
Format in all cases: in vivo
[1] = system: male DbDb Lep-deficient mice; assay: Db/Db Study 1: blood glucose after insulin and/or Compound 102
Protocol: In the present study, male DbDb Lep-deficient mice (Harlan Laboratories) approximately 16 weeks of age were used. [table] Procedure: Mice were divided into 4 groups of 6 mice per group. Blood glucose levels were measured using Accu-Chek Aviva Glucometers (Roche Diagnostics). The times of blood glucose levels were measured up to 72 hours after administration. Glucometers were calibrated prior to each study. […] Glucose levels are reported as mg/dL. In study 1, animals were fasted for 4 hours prior to the administration of test articles and then continuously fasted through to the 8-hour time point. Animals were then provided food ad libitum until 4-hour prior to the 28-hour time point at which point they were fasted until the last blood glucose measurement time point. Data are expressed as the average±SEM. Data were analyzed by two-way ANOVA followed by post-hoc Bonferroni test. N=6/group.

[2] = system: streptozocin Type I diabetic male CD-1: ICR mice; assay: Streptozocin Type I diabetic mice, insulin tolerance test, blood glucose
Protocol: In the present study, male CD-1: ICR mice (Charles River) approximately 8 weeks of age were used. Streptozocin administration to mice destroys pancreatic β-cells and is used to produce a model of Type I diabetes. In response to loss of pancreatic β-cells, mice become hyperglycemic. These mice are insulin responsive.
Streptozocin administration: Streptozocin administration to mice was conducted by a standard method. Briefly, mice were administered STZ at a dose-level of 70 mg/kg on day 1, 3 and 8. Each administration was preceded by an 18 hour fast. Mice were administered insulin (0.5 U) on days 2 and 9. On day 11, blood glucose levels were measured. Mice with blood glucose levels less than 300 mg/dL were excluded from the study. Mice were randomized to treatment groups.
Mice were tested on the insulin tolerance test on day 14 after the initial STZ administration. Mice were administered insulin (0.35U s.c.) and then 30 minutes later administered Compound 102 (100 mg/kg i.p.).
Blood glucose was measured 5, 15, 30, 60, 90, 120, 180, 240, 360, and 480 minutes after Compound 102 or vehicle administration. Blood was collected from a tail snip and drop of blood measured for glucose levels by glucometer (Accu-Chek Aviva Glucometers; Roche Diagnostics).
Data are expressed as the average±SEM. Data were analyzed by two-way ANOVA followed by post-hoc Bonferroni test. N=6/group

[3] = system: male DbDb Lep-deficient mice; assay: Db/Db Study 2: blood glucose 24-72 hours after insulin and/or Compound 102; conditions: for blood glucose levels compared with vehicle controls: twenty-four hours after administration alone, insulin 1.5 units/kg or Compound 102 100 mg/kg, 18 week old db/db mice
Protocol: In the present study, male DbDb Lep-deficient mice (Harlan Laboratories) approximately 18 weeks of age were used. [table] Procedure: Mice were divided into 4 groups of 6 mice per group. Blood glucose levels were measured using Accu-Chek Aviva Glucometers (Roche Diagnostics). The times of blood glucose levels were measured up to 72 hours after administration. Glucometers were calibrated prior to each study. […] Glucose levels are reported as mg/dL. In study 2, animals were fasted for 4 hours prior to each blood glucose measurement time point and then returned to ad libitum food. Data are expressed as the average±SEM. Data were analyzed by two-way ANOVA followed by post-hoc Bonferroni test. N=6/group Results: A second study was conducted to repeat the findings of Compound 102 effects on insulin action in the 24-72 hours time window and specifically to follow the insulin/Compound 102 combination effect through until it returned to normal levels (i.e., that of vehicle-treated animals). In the second study, there were three differences from the first: 1) mice were 18 weeks of age at the time of study, 2) the insulin dose-level was reduced from 3 to 1.5 U/kg and 3) blood glucose levels were measured out until 72 hours after administration.

| Compound | effect on blood glucose levels ([1]; Compound 102 100 mg/kg alone, 100 mg/kg) | effect on insulin action / insulin-mediated blood glucose lowering ([2]; Compound 102 100 mg/kg i.p. 30 minutes after insulin, p<0.05, p<0.001 versus insulin alone, FIG. 3, 100 mg/kg) | insulin-mediated blood glucose reduction to ([2]; Compound 102 100 mg/kg i.p. administered 30 minutes after insulin (0.35)) [mg/dL] | effect on blood glucose levels ([2]; Compound 102 100 mg/kg i.p. alone, insulin depleted mice, up to 6 hours, 100 mg/kg) | blood glucose levels still reduced up to ([2]; Compound 102 100 mg/kg i.p. in combination with insulin, time after administration) | blood glucose levels compared with vehicle controls [3] | time by which blood glucose levels returned to baseline levels ([1]; insulin 3 units/kg alone) [h] | blood glucose levels ([1]; insulin 3 units/kg alone, three hours after administration, fasted 16 week old db/db mice, baseline averaged 482 mg/dL) [mg/dL] | blood glucose levels ([2]; insulin alone (0.35), 90 minutes after administration, baseline 546 mg/dL) [mg/dL] | time at which blood glucose levels returned to baseline levels ([2]; insulin alone (0.35), after administration) [h] | blood glucose in the insulin treated group ([3]; insulin 1.5 units/kg alone, 24-72 hours window (elevation at 24 and 36 hour time points, rebound effect)) |
| --- | --- | --- | --- | --- | --- | --- | --- | --- | --- | --- | --- |
| Cc1cccc(Oc2cnc(=O)[nH]c2)c1 [Compound 102] | did not significantly affect blood glucose levels at any time point after administration; also recorded: Small, but statistically insignificant lowering of blood glucose | potentiated the insulin effect; also recorded: potentiated and prolonged the actions of insulin; also recorded: potentiated and prolonged insulin-mediated blood glucose lowering | 157 | did not affect blood glucose levels at any time point up to 6 hours after administration | up to 6 hours | not different from vehicle controls | – | – | – | – | – |
| Insulin [reference compound] | – | – | – | – | – | not different from vehicle controls | ≤ 8 | 166.5 | 263 | 4.5 | does not show blood glucose lowering; also recorded: slightly elevated blood glucose |
